Several values for one entry are separate records, joined by “and”; a condition that tells them apart may be missing. Equal entries are not always repeated. Entries after “also recorded” stand apart in the source; their conditions may differ. Where two headings read alike, the source gives them in different places.
What was measured:
[1] = test system: murinecytomegalovirus (MCMV) (Smith strain); assay: Mortality in MCMV-infected mice; assay type: in vivo, Swiss Webster female mice; settings: for Survivors (%) / Survivors/total / Mean day to death: MCMV-infected mice; for Survivors (%) / Survivors/total: 21 days; for Mean day to death: of mice that died on or before day 21
[2] = Toxicity controls: mortality and weight gain in uninfected mice; assay type: in vivo; settings: uninfected mice; for Mean Weight Gain: start of treatment to 24 hours after final treatment
Procedure: Groups of 5 uninfected mice were treated the same way and at the same times as described above. These animal were checked daily for survival. Their weigths were taken before the first treatment and 24 hours after the last treatment to determine drug effect on weight gain.

YAC-1 tumor cells [3] = assay: Natural killer cell activity, 4 hr chromium release assay
Procedure: (§1) Mice were administered a 50 mg/kg dose of the immunomodulators of the invention and were subsequently sacrificed. The spleens were harvested and splenocytes isolated. Immunologic assays were conducted on those splenocytes that were taken 24 hours after final treatment. These cells were subjected to tests to determine macrophage and natural killer (NK) cell function.
Three week-old C57 BL/6 mice were procured and quarantined for 24 to 48 hours prior to treatment. The five oligopeptides described in tables 2, 3 and 4 were admixed with a 0.4% water solution of carboxymethylcellulose. The solutions were stored at 4° C. until use. Ribavarin (1-β-D-ribofuranosyl-1,2,4-triazole-carboxamide) was used in each subsequent experiment as a control.
(§2) Animals were treated with a 50 mg/kg/day dosage of one of the tested compound and were killed 24 hr after the final treatment and their spleens removed. […] Red blood cells were removed by haemolytic lysis.
Natural killer (NK) activity of murine cells was determined by testing splenic cells for their ability to lyse YAC-1 tumor cells in a conventional 4 hr chromium release assay as an indicator of NK was expressed as: % chromium release=(experimental counts per minute (cpm)-background cpm)/(maximum cpm-background cpm)

[4] = test system: IgM antibody against SRBC antigen; assay: Enzyme immunoassay of IgM antibody in blood of SRBC-immunized mice; assay type: in vivo; settings: Experiment 7, 10 mg/kg i.p.
Procedure: Outbred CD1 mice were immunized with 0.1% volume for volume sheep red blood cell antigen suspended in saline. The mice were injected intraperitoneally with 0.5 ml, suspension of approximately 2×10^7 cells.
The mice were injected shortly thereafter with a suspension of an immunomodulator of the invention. The immunomodulator dose was a 0.23 ml of a 1 mg/ml suspension in phosphate buffered saline. The injected dose was 10 mg/kg. The second injection was also intraperitoneal.
The mice were killed five days after injections. Blood samples were taken for analysis of immunoglobulin. The determination was made by enzyme immunoassay using an anti μ-horseradish peroxidase conjugate. The spleen was removed, transferred to a petri dish containing 2 ml of Hank's balanced salt solution and 10 mMolar Hepes buffer (HBSS-HEPES). The spleen was gently crushed by the use of forceps, and the cell suspension was filtered through cotton gauze to eliminate cellular debris. The filtered suspension was brought to volume (5 ml) by the addition of HBSS-HEPES, the cells counted, and the suspension diluted to a final concentration of 5×10^6 cells/ml.

[5] = test system: Macrophage function (IL-1 activity in splenocytes); assay: Macrophage function, IL-1 activity in splenocytes by [3H]thymidine uptake in PHA-stimulated thymocytes
Procedure: as §1
Ribavarin (1-β-D-ribofuranosyl-1,2,4-triazole-carboxamide) was used in each subsequent experiment as a control.
as §2
Macrophage function was assessed by an interleukin-1 (IL-1) assay that utilizes responsiveness of mouse thymocytes to phytohemagglutin (PHA) which is dependent on IL-1 for its reactivity.
The cells were incubated 72 hr at 37° C. During the last 4 hr of the incubation, the cells were pulsed with [^3 H] thymidine (1 μCi/well). The cells were then harvested and [H^3 ] thymidine incorporation was determined using a direct counter.

YAC-1 tumor cells [6] = assay type: in vivo, BALB/c mice; settings: for Mean percent chromium release (2SE), Effector:Target 25:1 / Mean percent chromium release (2SE), Effector:Target 50:1 / Mean percent chromium release (2SE), Effector:Target 100:1: ip, Hydrochloride
[7] = test system: murinecytomegalovirus (MCMV) (Smith strain); assay: MCMV titers in tissues; assay type: in vivo, Swiss Webster female mice
[8] = test system: Total T and B cells in splenocytes; assay: Splenic T and B cell enumeration by FACS; assay type: in vivo, C57BL/6 mice
Text: Splenic cells were enumerated with the following assay. Dispersed splenocytes were reacted with fluorescein isothiocyanate-labelled murine monoclonal antibody anti-Ly5 for B cell enumeration and phycoerythrin-labelled monoclonal antibody anti-Thy 1.2 for T cell counts. The labelled cells were then enumerated with a fluorescence-activated cell sorter (FACS) (EPICS-C, Coulter Corp., Hialeah, Fla.).

[9] = test system: antibody producing cells (SRBC antigen); assay: Plaque forming assay (PFC) in spleen cells of SRBC-immunized mice; assay type: in vivo
[10] = test system: Macrophage activation (IL-1 concentration); parameters: species or system BALB/c mice; settings: mouse, in vivo, Hydrochloride
[11] = 50 mg/kg i.p. days -1,+1,+3,+5,+7
[12] = 100 mg/kg i.p. days -1,+1,+3,+5,+7
[13] = 200 mg/kg i.p. days -1,+1,+3,+5,+7
[14] = prophylactic treatment, three doses 50-200 mg/kg i.p., Hydrochloride
[15] = 50 mg/kg/day i.p. every other day for 4 injections, splenocytes 24 hr after final treatment, n = 5
[16] = 50 mg/kg, splenocytes 24 hours after final treatment, Hydrochloride
[17] = 50 mg/kg, splenocytes, Hydrochloride

**Q.** Which results are given for CCCCCCCCCCCCCCCCCCN[C@H](C)C(=O)N[C@@H](CCC(N)=O)C(=O)O.Cl [BCH-527, Octadecyl D-Alanyl L-Glutamine Hydrochloride]?
**A.** Survivors (%) [1, 11]: 90%; Survivors/total [1, 11]: 9/10; Mean day to death ([1]; 50 mg/kg i.p.): 4.0 ± 0.0 days; Survivors (%) [1, 12]: 78%; Survivors/total [1, 12]: 7/9; Mean day to death ([1]; 100 mg/kg i.p.): 10.5 ± 6.3 days; Survivors (%) [1, 13]: 100%; Survivors/total [1, 13]: 10/10; Mean day to death ([1]; 200 mg/kg i.p.): > 21 days; Effect on death in CMV-challenged mice (in words) [1, 14]: prevented death; also recorded: preventing death; Survivors (%) ([2]; 50 mg/kg): 100%; Survivors/total ([2]; 50 mg/kg): 5/5; Mean Weight Gain ([2]; 50 mg/kg): 8.4 gm; Survivors (%) ([2]; 100 mg/kg): 100%; Survivors/total ([2]; 100 mg/kg): 5/5; Mean Weight Gain ([2]; 100 mg/kg): 9.0 gm; Survivors (%) ([2]; 200 mg/kg): 100%; Survivors/total ([2]; 200 mg/kg): 5/5; Mean Weight Gain ([2]; 200 mg/kg): 6.9 gm; % Chromium Release ± SD, Effector:Target Ratio 25:1 (YAC-1 tumor cells [3]; [15]): 13.9 ± 2.0%; % Chromium Release ± SD, Effector:Target Ratio 50:1 (YAC-1 tumor cells [3]; [15]): 24.0 ± 1.7%; Effect on natural killer (NK) cell activity (in words) (YAC-1 tumor cells [3]; [16]): significantly stimulate; also recorded: stimulated; Enzyme Immunoassay, IgM antibody relative to control (100%) [4]: 523%; Mean CPM of Treated Thymocytes ± SD [5, 15]: 5660 ± 1011 CPM; Effect on macrophage function (in words) [5, 16]: somewhat stimulatory; also recorded: macrophage stimulation; Effect on NK cells (in words) (YAC-1 tumor cells [6]; after 4 injections at 100 and 50 mg/kg/day, […]): strong activation of NK cells; Effect on natural killer cells activity (in words) (YAC-1 tumor cells [6]; mouse, in vivo): stimulated the natural killer cells activity; Mean percent chromium release (2SE), Effector:Target 25:1 (YAC-1 tumor cells [6]; mouse, in vivo, 50 mg/kg/day): 10.8(1.3) percent and 12.7(0.4) percent and 14.8(0.9) percent; Mean percent chromium release (2SE), Effector:Target 50:1 (YAC-1 tumor cells [6]; mouse, in vivo, 50 mg/kg/day): 17.6(1.1) percent and 17.1(0.6) percent and 18.5(1.0) percent; Mean percent chromium release (2SE), Effector:Target 100:1 (YAC-1 tumor cells [6]; mouse, in vivo, 50 mg/kg/day): 21.2(2.9) percent and 23.3(1.0) percent and 23.9(1.1) percent; Mean percent chromium release (2SE), Effector:Target 25:1 (YAC-1 tumor cells [6]; mouse, in vivo, 100 mg/kg/day): 10.6(1.8) percent and 11.8(1.7) percent and 16.9(1.3) percent; Mean percent chromium release (2SE), Effector:Target 50:1 (YAC-1 tumor cells [6]; mouse, in vivo, 100 mg/kg/day): 16.6(1.9) percent and 16.4(1.8) percent and 20.8(1.4) percent; Mean percent chromium release (2SE), Effector:Target 100:1 (YAC-1 tumor cells [6]; mouse, in vivo, 100 mg/kg/day): 20.0(2.0) percent and 22.3(2.0) percent and 26.5(1.6) percent; Mean percent chromium release (2SE), Effector:Target 25:1 (YAC-1 tumor cells [6]; mouse, in vivo, 200 mg/kg/day): 11.3(0.6) percent and 8.6(0.6) percent and 9.6(0.9) percent; Mean percent chromium release (2SE), Effector:Target 50:1 (YAC-1 tumor cells [6]; mouse, in vivo, 200 mg/kg/day): 17.3(1.4) percent and 12.8(0.7) percent and 12.9(0.9) percent; Mean percent chromium release (2SE), Effector:Target 100:1 (YAC-1 tumor cells [6]; mouse, in vivo, 200 mg/kg/day): 20.4(2.4) percent and 18.2(1.0) percent and 17.6(1.1) percent; Virus titer in Liver ([7]; Day 3, 50 mg/kg): 3.1±0.7 Log10 CCID50/qram; Virus titer in Lung ([7]; Day 3, 50 mg/kg): < 2.5±0.0 Log10 CCID50/qram; Virus titer in spleen ([7]; Day 3, 50 mg/kg): 6.1±0.6 Log10 CCID50/qram; Virus titer in Liver ([7]; Day 3, 100 mg/kg): 2.9±0.7 Log10 CCID50/qram; Virus titer in Lung ([7]; Day 3, 100 mg/kg): < 2.5±0.0 Log10 CCID50/qram; Virus titer in salivary gland ([7]; Day 3, 100 mg/kg): 3.0±0.4 Log10 CCID50/qram; Virus titer in spleen ([7]; Day 3, 100 mg/kg): 4.7±1.6 Log10 CCID50/qram; Virus titer in Liver ([7]; Day 3, 200 mg/kg): 2.9±0.4 Log10 CCID50/qram; Virus titer in Lung ([7]; Day 3, 200 mg/kg): < 2.5±0.0 Log10 CCID50/qram; Virus titer in salivary gland ([7]; Day 3, 200 mg/kg): < 2.5±0.0 Log10 CCID50/qram; Virus titer in spleen ([7]; Day 3, 200 mg/kg): 5.3±0.4 Log10 CCID50/qram; Virus titer in Liver ([7]; Day 6, 50 mg/kg): 3.1±1.1 Log10 CCID50/qram; Virus titer in Lung ([7]; Day 6, 50 mg/kg): 3.4±0.6 Log10 CCID50/qram; Virus titer in spleen ([7]; Day 6, 50 mg/kg): 4.3±1.2 Log10 CCID50/qram; Virus titer in Liver ([7]; Day 6, 100 mg/kg): < 2.5±0.0 Log10 CCID50/qram; Virus titer in Lung ([7]; Day 6, 100 mg/kg): 3.9±0.8 Log10 CCID50/qram; Virus titer in salivary gland ([7]; Day 6, 100 mg/kg): 2.8±0.3 Log10 CCID50/qram; Virus titer in spleen ([7]; Day 6, 100 mg/kg): 4.9±0.6 Log10 CCID50/qram; Virus titer in Liver ([7]; Day 6, 200 mg/kg): < 2.5±0.0 Log10 CCID50/qram; Virus titer in Lung ([7]; Day 6, 200 mg/kg): 3.1±0.4 Log10 CCID50/qram; Virus titer in salivary gland ([7]; Day 6, 200 mg/kg): 3.5±0.7 Log10 CCID50/qram; Virus titer in spleen ([7]; Day 6, 200 mg/kg): 3.7±0.7 Log10 CCID50/qram; Effect on tissue virus titres (in words) [7, 14]: reduced MCMV tissue virus titres; also recorded: reducing tissue virus titres; % Cells/Spleen ± SD, B Cells ([8]; 50 mg/kg/day i.p. every other day for 4 injections, anti-Ly5, n = 5): 43 ± 1.5%; % Cells/Spleen ± SD, T Cells ([8]; 50 mg/kg/day i.p. every other day for 4 injections, anti-Thy 1.2, n = 5): 39 ± 2.3%; Effect on B cell counts (in words) [8, 17]: increase % B cells; also recorded: increased B cell counts; Effect on T cell counts (in words) [8, 17]: suppressing T cells; also recorded: suppressed T cell counts; Plaque Assay, PFC relative to control (100%) ([9]; Experiment 7, mice, 10 mg/kg i.p.): 6843%; Plaque Assay, PFC per 10^6 spleen cells ([9]; Experiment 7, mice, 10 mg/kg i.p., five days after injections): 479 ± 322 PFC per 10^6 spleen cells; Immunomodulating activity (in words) ([9]; plaque-forming assay, Table 1): immunostimulants; IL-1 Conc. (2SE) ([10]; 200 mg/kg/day): 16.6(3.7) μg/ml and 31.4(3.4) μg/ml and 29.1(7.4) μg/ml; Effect on macrophage activation (in words) [10]: significant macrophage activator; also recorded: macrophage stimulation

Source: patent US5688771A, “Lipophilic oligopeptides with immunomodulating activity” (priority 1993, dated 1997)
